Measurements as given in paper PMC5566973 (Frontiers in Pharmacology, 2017).

Experiments:
MRP2 = experiment: in vitro; conditions: human, Caco-2, PappAB
Procedure: (§1) Caco-2, MDCK and MDCK-MRP2 cells were donated by Prof. Yan Xie and Yueming Ma from Shanghai University of Traditional Chinese Medicine. The cells were grown in culture dishes (Corning® Costar, Cambridge, MA, USA) using DMEM supplemented with 10% FBS, 1% NEAA and 1% penicillin-streptomycin solution. The cells were cultured in 5% CO2 and […] with 90% relative humidity at 37°C. The medium was replaced every other day during incubation. The cells were passaged every 3–4 days between 70 and 80% confluence at a 1:5 split ratio using 0.25% trypsin-EDTA. For the transport experiments, the cells from passages between 30 and 45 were seeded at 1 × 10^5 cells/cm^2 onto permeable polycarbonate inserts (0.45 μm pore size, seeding surface of 0.6 cm^2, Millipore, MA, USA) in 24-well plastic plates. The media in the culture plates were changed every other day for the first week after seeding and were replaced daily afterward. […] The cells were used for the transport experiments 21–28 (Caco-2) or 5–7 (MDCK and MDCK-MRP2) days after seeding, and only monolayers with a TEER-value above 420 Ω cm^2 were used during the studies.
(§2) The apical (AP) and basolateral (BL) sides are typical of polarized Caco-2, MDCK and MDCK-MRP2 epithelial cells. Before the experiments, the polarized cell monolayers were washed twice with warm HBSS solution and subsequently preincubated (37°C, 30 min). Afterward, HBSS solution on both sides of the cell monolayers was removed using a mini desktop vacuum pump. […] The final DMSO concentration in the HBSS or drug mixture was below 0.5%. The monolayers were incubated at 37°C, and 100 μL samples were taken at 30, 60, 90, and 120 min from the acceptor compartment and immediately replaced with the same volume of prewarmed fresh blank HBSS. TEER measurements for assessing the membrane integrity took place before and after the experiments.
(§3) The apparent permeability coefficients (Papp) and ER were calculated as Equations (2) and (3): […]
(§4) where dQ/dt is the steady-state flux, A is the membrane surface area, and C0 is the initial drug concentration in the donor compartment. PappBA is the Papp-value measured in BL to AP direction and PappAB is the Papp-value measured in AP to BL direction. It indicated the involvement of an active transport process when the ER-value is above 1.5 (Hubatsch et al., [2007]).

OATPs = experiment: in vitro; conditions: human, Caco-2, PappAB
Procedure: as §1, §2, §3, §4

MDCK cell monolayers = experiment: in vitro
Procedure: as §1, §2, §3, §4

Caco-2 cell monolayers = experiment: in vitro
Procedure: as §1, §2, §3, §4

PEPT1 = experiment: in vitro; conditions: human, Caco-2, PappAB
Procedure: as §1, §2, §3, §4

BCRP = experiment: in vitro; conditions: human, Caco-2, PappAB
Procedure: as §1, §2, §3, §4

Na+/K+-ATPase = experiment: in vitro; conditions: human
Procedure: as §1, §2, §3, §4

MDR1 = experiment: in vitro; conditions: human, Caco-2, PappBA, Caco-2, 2 μM
Procedure: as §1, §2, §3, §4

[1] = Cytotoxicity CCK-8 assay in MDCK cells; format: cell-based, canine; conditions: dog, MDCK cells, up to 5 μM, 12 h incubation, read-out: Cell viability
Procedure: (§5) In brief, the cells were seeded on 96-well plates at 1 × 10^5 cells/mL and cultured in 100 μL of culture medium at incubator for 24 h. […] After 12 h incubation, 10 μL of CCK-8 dye was added to each well, and cells were incubated for another 2 h. Cell viability (%) was calculated using the following Equation (1):
(§6) (1) Cell viability (%)=(ODsample−ODblank)/ (ODcontrol−ODblank) ×100%
(§7) ODsample refers to the absorbance of a well with treated cells and CCK-8. ODblank refers to the absorbance of a well with medium and CCK-8 but without cells. ODcontrol refers to the absorbance of a well with untreated cells and CCK-8. The absorbance at 450 nm was measured by a microplate reader (Biotek Instrument; Gene Co., Ltd., VT, USA), and the results are presented as mean ± SD from triplicate wells.

MDCK cells = experiment: Cytotoxicity CCK-8 assay in MDCK cells; format: cell-based, canine; conditions: CCK-8
Procedure: as §5, §6, §7

[2] = Caco-2, 2 μM, + Apigenin 0.025 mM (BCRP)
[3] = Caco-2, 2 μM, + ES 0.05 mM (OATPs)
[4] = Caco-2, 2 μM, + Gly-Sar 10 mM (PEPT1)
[5] = Caco-2, 2 μM, + Ko143 0.01 mM (BCRP)
[6] = Caco-2, 2 μM, + MK571 0.05 mM (MRP2)
[7] = Caco-2, 2 μM, + NaN3 10 mM (ATP)
[8] = Caco-2, 2 μM, + Phloretin 0.3 mM (MCTs)
[9] = Caco-2, 2 μM, + Phloridzin 0.5 mM (SGLT1)
[10] = Caco-2, 2 μM, + Probenecid 0.2 mM (MRP2)
[11] = Caco-2, 2 μM, + TEA 5 mM (OCTs/OCTNs)
[12] = Caco-2, 2 μM, Control (no inhibitor or substrate)

Structure (SMILES): COc1ccc2c(c1)[nH]c1c(C)nccc12 [Harmine]
- Papp A→B (MRP2): 29.9 ± 2.14 ×10⁻⁶ cm/s
- Papp A→B (OATPs): 14.6 ± 1.31 ×10⁻⁶ cm/s
- PappAB (MDCK cell monolayers; 2 μM, 4°C): 1.85 ± 0.55^*** 1 × 10^−6 cm/s
- PappAB (MDCK cell monolayers; 2 μM, Control (pH 7.4, 37°C, without EDTA)): 4.60 ± 0.25 1 × 10^−6 cm/s
- PappAB (MDCK cell monolayers; 2 μM, with EDTA 5 mM): 7.47 ± 1.31^* 1 × 10^−6 cm/s
- PappBA (MDCK cell monolayers; 2 μM, with EDTA 5 mM): 8.98 ± 0.90 1 × 10^−6 cm/s
- PappAB (MDCK cell monolayers; 2 μM, with EDTA 5 mM, listed as harmine): 7.47 ± 1.31 1 × 10^−6 cm/s
- PappBA (MDCK cell monolayers; dog, pH 7.4): 7.32 ± 0.19 1 × 10^−6 cm/s
- PappAB (Caco-2 cell monolayers; Caco-2, 2 μM, 4°C): 1.58 ± 0.57 1 × 10^−6 cm/s
- Modulatory effect (Caco-2 cell monolayers; [2]): −
- PappBA (Caco-2 cell monolayers; [2]): 28.40 ± 4.27 1 × 10^−6 cm/s
- Modulatory effect (Caco-2 cell monolayers; Caco-2, 2 μM, + Cimetidine 0.05 mM (OATs)): −
- Modulatory effect (Caco-2 cell monolayers; [3]): +
- PappAB (Caco-2 cell monolayers; [3]): 14.64 ± 1.31 1 × 10^−6 cm/s
- PappBA (Caco-2 cell monolayers; [3]): 28.43 ± 1.89 1 × 10^−6 cm/s
- Modulatory effect (Caco-2 cell monolayers; [4]): −
- PappBA (Caco-2 cell monolayers; [4]): 27.86 ± 1.96 1 × 10^−6 cm/s
- Modulatory effect (Caco-2 cell monolayers; [5]): −
- PappBA (Caco-2 cell monolayers; [5]): 27.96 ± 3.86 1 × 10^−6 cm/s
- Modulatory effect (Caco-2 cell monolayers; [6]): +
- PappBA (Caco-2 cell monolayers; [6]): 29.36 ± 2.73 1 × 10^−6 cm/s
- Modulatory effect (Caco-2 cell monolayers; [7]): +
- PappBA (Caco-2 cell monolayers; [7]): 27.94 ± 1.76 1 × 10^−6 cm/s
- Modulatory effect (Caco-2 cell monolayers; [8]): −
- PappBA (Caco-2 cell monolayers; [8]): 27.37 ± 2.13 1 × 10^−6 cm/s
- Modulatory effect (Caco-2 cell monolayers; [9]): −
- PappBA (Caco-2 cell monolayers; [9]): 29.39 ± 1.30 1 × 10^−6 cm/s
- Modulatory effect (Caco-2 cell monolayers; [10]): +
- PappBA (Caco-2 cell monolayers; [10]): 27.93 ± 2.33 1 × 10^−6 cm/s
- Modulatory effect (Caco-2 cell monolayers; Caco-2, 2 μM, + Quinidine 0.1 mM (MDR1)): −
- Modulatory effect (Caco-2 cell monolayers; Caco-2, 2 μM, + Sodium vanadate 0.05 mM (Na^+)): +
- Modulatory effect (Caco-2 cell monolayers; [11]): +
- PappBA (Caco-2 cell monolayers; [11]): 28.05 ± 1.20 1 × 10^−6 cm/s
- Modulatory effect (Caco-2 cell monolayers; Caco-2, 2 μM, + Verapamil 0.1 mM (MDR1)): −
- PappAB (Caco-2 cell monolayers; [12]): 18.52 ± 2.06 1 × 10^−6 cm/s
- PappBA (Caco-2 cell monolayers; [12]): 29.40 ± 1.38 1 × 10^−6 cm/s
- PappBA (Caco-2 cell monolayers; Caco-2, 2 μM, Control (pH 7.4, 37°C, without EDTA)): 29.34 ± 1.21 1 × 10^−6 cm/s
- PappBA (Caco-2 cell monolayers; Caco-2, 2 μM, with EDTA 5 mM): 29.67 ± 2.22 1 × 10^−6 cm/s
- increase of PappAB (Caco-2 cell monolayers; Caco-2, + MK571 vs control): 1.62 folds
- increase of PappAB (Caco-2 cell monolayers; Caco-2, + probenecid vs control): 1.27 folds
- ER-values at the tested concentrations (Caco-2 cell monolayers; Caco-2 and MDCK, 1, 2, and 5 μM): > 1.5
- PappAB (Caco-2 cell monolayers; human, Caco-2): 24.11 ± 2.53^* 1 × 10^−6 cm/s
- PappAB (Caco-2 cell monolayers; human, Caco-2, pH 7.4): 18.78 ± 1.26 1 × 10^−6 cm/s
- Papp A→B (PEPT1): 18.3 ± 1.28 ×10⁻⁶ cm/s
- Papp A→B (BCRP): 19 ± 3.67 ×10⁻⁶ cm/s
- Papp A→B (Na+/K+-ATPase; Caco-2, PappAB): 13.1 ± 0.93 ×10⁻⁶ cm/s
- Papp B→A (Na+/K+-ATPase; Caco-2, PappBA, Caco-2, 2 μM, + Sodium vanadate 0.05 mM (Na^+)): 26.2 ± 1.78 ×10⁻⁶ cm/s
- Papp B→A (MDR1; + Quinidine 0.1 mM (MDR1)): 29 ± 3.96 ×10⁻⁶ cm/s
- Papp B→A (MDR1; + Verapamil 0.1 mM (MDR1)): 28.5 ± 3.77 ×10⁻⁶ cm/s
- viability at 12 h [1]: > 90%
- concentration without toxicity or decreased cell viability (MDCK cells): up to 5 μM
- drug concentration producing notable toxicity (MDCK cells): > 25 µM
